Laboratory results reported in US20220289728A1, “MODULATORS OF TREX1” (Constellation Pharmaceuticals, Inc., priority 2019, published 2022).

Assays:
[1] = target: T1, human TREX2 (residues M44-A279) (Homo sapiens, UniProt Q9BQ50); experiment: TREX2 Biochemical Assay (fluorescence, dsDNA substrate degradation); conditions: 2.5 nM TREX2, 60 nM dsDNA substrate, 25 minutes at room temperature
T1 construct: human TREX2 (residues M44-A279, expressed in E. coli); His-TEV (His tag with TEV site) (N); made in house; host or cells: E. coli
T1 sequence (Q9BQ50 44-279 isoform Q9BQ50-1): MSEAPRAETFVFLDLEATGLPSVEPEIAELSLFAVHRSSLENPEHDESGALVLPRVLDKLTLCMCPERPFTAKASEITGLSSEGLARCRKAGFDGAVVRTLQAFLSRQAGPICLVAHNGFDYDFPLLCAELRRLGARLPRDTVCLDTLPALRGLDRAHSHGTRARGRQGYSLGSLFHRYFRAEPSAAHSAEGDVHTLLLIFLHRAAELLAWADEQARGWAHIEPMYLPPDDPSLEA
Description: Degradation of the dsDNA liberates free fluorophore to produce a fluorescent signal. Specifically, 7.5 μL of N-terminally His-Tev tagged human TREX2 (residues M44-A279, expressed in E. coli and purified in house) in reaction buffer (50 mM Tris (pH 7.4), 150 mM NaCl, 2 mM DTT, 0.1 mg/mL BSA, 0.01% (v/v) Tween-20 and 100 mM MgCl2) was added to a 384-well Black ProxiPlate Plus (Perkin Elmer) which already contained compound (150 nL) at varying concentrations as a 10 point dose-response in DMSO. To this was added 7.5 μL of dsDNA substrate (Strand A: 5′ TEX615/GCT AGG CAG 3′; Strand B: 5′ CTG CCT AGC/IAbRQSp (IDT)) in reaction buffer. Final concentrations were 2.5 nM TREX2, 60 nM dsDNA substrate in reaction buffer with 1.0% DMSO (v/v). After 25 minutes at room temperature, reactions were quenched by the addition of 5 μL of stop buffer (same as reaction buffer plus 200 mM EDTA). Final concentrations in the quenched reaction mixture were […] TREX2, 45 nM DNA and 50 mM EDTA in a volume of 20 μL. After a 5-minute incubation at room temperature, plates were read in a laser sourced Envision (Perkin-Elmer), measuring fluorescence at 615 nm following excitation w/570 nm light. IC50 values were calculated by comparing the measured fluorescence at 615 nm ratio relative to control wells pre-quenched w/stop buffer (100% inhibition) and no inhibitor (0% inhibition) controls as using non-linear least square four parameter fits and either Genedata or GraphPad Prism (GraphPad Software, Inc.).

full length human TREX1 = target: T2, full length human TREX1 (Homo sapiens, UniProt Q9NSU2); experiment: TREX1 Biochemical Assay (fluorescence, dsDNA substrate degradation); conditions: 150 pM TREX1, 60 nM dsDNA substrate, 25 minutes at room temperature
T2 construct: N-terminally His-Tev tagged full length human TREX1; His-TEV (His tag with TEV site) (N); made in house; host or cells: E. coli
T2 sequence (Q9NSU2 1-314): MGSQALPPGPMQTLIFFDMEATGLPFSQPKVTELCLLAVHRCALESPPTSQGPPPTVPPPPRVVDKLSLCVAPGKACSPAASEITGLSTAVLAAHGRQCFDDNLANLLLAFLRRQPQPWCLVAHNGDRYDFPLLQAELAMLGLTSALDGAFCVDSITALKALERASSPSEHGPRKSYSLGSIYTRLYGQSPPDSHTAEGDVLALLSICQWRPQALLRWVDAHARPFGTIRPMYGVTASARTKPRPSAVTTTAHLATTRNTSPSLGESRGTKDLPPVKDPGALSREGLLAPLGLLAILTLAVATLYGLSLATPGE
Description: Degradation of the dsDNA liberates free fluorophore to produce a fluorescent signal. Specifically, 7.5 μL of N-terminally His-Tev tagged full length human TREX1 (expressed in E. coli and purified in house) in reaction buffer (50 mM Tris (pH 7.4), 150 mM NaCl, 2 mM DTT, 0.1 mg/mL BSA, 0.01% (v/v) Tween-20 and 100 mM MgCl2) was added to a 384-well Black ProxiPlate Plus (Perkin Elmer) which already contained compound (150 nL) at varying concentrations as a 10 point dose-response in DMSO. To this was added 7.5 μL of dsDNA substrate (Strand A: 5′ TEX615/GCT AGG CAG 3′; Strand B: 5′ CTG CCT AGC/IAbRQSp (Integrated DNA Technologies)) in reaction buffer. Final concentrations were 150 pM TREX1, 60 nM dsDNA substrate in reaction buffer with 1.0% DMSO (v/v). After 25 minutes at room temperature, reactions were quenched by the addition of 5 μL of stop buffer (same as reaction buffer plus 200 mM EDTA). Final concentrations in the quenched reaction were 112.5 pM TREX1, 45 nM DNA and 50 mM EDTA in a volume of 20 μL. After a 5-minute incubation at room temperature, plates were read in a laser sourced Envision (Perkin-Elmer), measuring fluorescence at 615 nm following excitation w/570 nm light. IC50 values were calculated by comparing the measured fluorescence at 615 nm ratio relative to control wells pre-quenched w/stop buffer (100% inhibition) and no inhibitor (0% inhibition) controls as using non-linear least square four parameter fits and either Genedata or GraphPad Prism (GraphPad Software, Inc.).

HCT116 dual cells = experiment: HCT116 Cell Assay (Lucia luciferase reporter of Type I interferon induction); assay type: cell-based, human; conditions: pBR322/BstNI DNA transfection, Lucia luciferase at 48 h, relative to 10 uM compound 39
Description: HCT116 dual cells (Invivogen, San Diego, Calif., USA) are derived from the human HCT116 colorectal carcinoma cell line. Cells have been selected for the stable integration of SEAP and Luciferase reporter genes, which expression is under the control of 5 tandem response elements for NF-KB/AP1 and STAT1/STAT2, respectively. The cell line was used to monitor Type I interferon induction and subsequent signaling by measuring the activity of the Lucia luciferase secreted in the culture medium.
HCT116 cells were plated in 96-well plate(s) at 40,000 cells/well in 100 uL DMEM supplemented with 10% FBS and 25 mM Hepes (pH 7.2-7.5). After overnight settling, cells were treated with TREX1i for 4 h (maximum DMSO fraction was 0.1%) before 1.25 ug/mL pBR322/BstNI restriction digest (New England Biolabs, Ipswich, Mass., USA) was transfected with Lipofectamine LTX (ThermoFisher, Grand Island, N.Y., USA), according to product manual recommendations. Briefly, Lipofectamine LTX (0.4 uL/well) was diluted in OptiMEM (5 uL/well). pBR322/BstNI (100 ng/well) was diluted in OptiMEM (5 uL/well) before Plus reagent (0.1 uL/100 ng DNA) was added. After 5 min incubation at room temperature, the DNA mixture was mixed dropwise with the diluted Lipofectamine LTX. After an additional 10 min incubation, the transfection mix (10 uL/well) was added to the cells. Cells were maintained at 37° C. for 48 h before monitoring the Lucia Luciferase activity from the cell culture medium. EC50 values were calculated by comparing the measured luminescence relative to 10 uM compound 39 (100% inhibition) and no inhibitor (0% inhibition) controls using non-linear least-squares four parameter fits in either Genedata Screener or GraphPad Prism (GraphPad Software, Inc.).

[2] = Homo sapiens, HCT-116, 4 h pre-treatment

Row | IC50 [1] [nM] | IC50 (full length human TREX1) [nM] | EC50 (HCT116 dual cells; 4 h pre-treatment) [nM] | EC50 (HCT116 dual cells; [2]) [nM] | Compound
1 | 1000 to 10000 | < 100 | 1000 to 10000 | – | CN(c1nc(C(=O)Nc2cnoc2)c(O)c(=O)n1C)C(c1ccccc1)C1CCOCC1 (single isomer, unassigned) [Example 46]
2 | < 1000 | < 100 | – | < 1000 | CN(c1nc(C(=O)Nc2cnoc2)c(O)c(=O)n1C)C(c1ccccc1)c1cccc(C#N)c1 (single isomer, unassigned) [Example 50]
3 | < 1000 | < 100 | 1000 to 10000 | – | CN(c1nc(C(=O)Nc2cnoc2)c(O)c(=O)n1C)C(c1ccccc1)c1cccc(C#N)c1 (single isomer, unassigned) [Example 51]
4 | < 1000 | < 100 | – | < 1000 | CN(c1nc(C(=O)Nc2cnoc2)c(O)c(=O)n1C)C(c1ccccc1)c1ncccc1Cl (single isomer, unassigned) [Example 53]
5 | < 1000 | < 100 | < 1000 | – | CN(c1nc(C(=O)Nc2cnoc2)c(O)c(=O)n1C)C(c1ccccc1)c1ncccc1Cl (single isomer, unassigned) [Example 54]
6 | < 1000 | < 100 | – | < 1000 | CN(c1nc(C(=O)Nc2cnoc2)c(O)c(=O)n1C)C(c1ccccn1)c1ccccc1Cl (single isomer, unassigned) [Example 56]
7 | < 1000 | < 100 | < 1000 | – | CN(c1nc(C(=O)Nc2cnoc2)c(O)c(=O)n1C)C(c1ccccn1)c1ccccc1Cl (single isomer, unassigned) [Example 57]
8 | 1000 to 10000 | < 100 | – | 1000 to 10000 | Cc1cccnc1C(c1ccccc1)N(C)c1nc(C(=O)Nc2cnoc2)c(O)c(=O)n1C (single isomer, unassigned) [Example 58]
9 | < 1000 | < 100 | < 1000 | – | Cc1cccnc1C(c1ccccc1)N(C)c1nc(C(=O)Nc2cnoc2)c(O)c(=O)n1C (single isomer, unassigned) [Example 59]
10 | 1000 to 10000 | < 100 | – | 1000 to 10000 | CN(c1nc(C(=O)Nc2cnoc2)c(O)c(=O)n1C)C(c1ccccn1)c1c(Cl)cccc1Cl (single isomer, unassigned) [Example 60]
11 | < 1000 | < 100 | < 1000 | – | CN(c1nc(C(=O)Nc2cnoc2)c(O)c(=O)n1C)C(c1ccccn1)c1c(Cl)cccc1Cl (single isomer, unassigned) [Example 61]
12 | < 1000 | < 100 | – | < 1000 | Cc1cccc(Cl)c1C(c1ccccn1)N(C)c1nc(C(=O)Nc2cnoc2)c(O)c(=O)n1C (single isomer, unassigned) [Example 62]
13 | < 1000 | < 100 | 1000 to 10000 | – | Cc1cccc(Cl)c1C(c1ccccn1)N(C)c1nc(C(=O)Nc2cnoc2)c(O)c(=O)n1C (single isomer, unassigned) [Example 63]
14 | < 1000 | < 100 | – | < 1000 | CN(c1nc(C(=O)Nc2cnoc2)c(O)c(=O)n1C)C(c1ccccc1Cl)C1CC1 (single isomer, unassigned) [Example 68]
15 | < 1000 | < 100 | < 1000 | – | CN(c1nc(C(=O)Nc2cnoc2)c(O)c(=O)n1C)C(c1ccccc1Cl)C1CC1 (single isomer, unassigned) [Example 69]
16 | < 1000 | < 100 | – | 1000 to 10000 | CC(c1c(Cl)cccc1Cl)N(C)c1nc(C(=O)Nc2cnoc2)c(O)c(=O)n1C (single isomer, unassigned) [Example 70]
17 | < 1000 | < 100 | < 1000 | – | CC(c1c(Cl)cccc1Cl)N(C)c1nc(C(=O)Nc2cnoc2)c(O)c(=O)n1C (single isomer, unassigned) [Example 71]
18 | < 1000 | < 100 | – | < 1000 | Cc1ncc(C(c2ccccc2Cl)N(C)c2nc(C(=O)Nc3cnoc3)c(O)c(=O)n2C)cn1 (single isomer, unassigned) [Example 81]
19 | < 1000 | < 100 | – | < 1000 | CN(c1nc(C(=O)Nc2cnoc2)c(O)c(=O)n1C)C(c1ccccc1)c1ccccc1C(F)(F)F (single isomer, unassigned) [Example 83]
20 | < 1000 | < 100 | < 1000 | – | CN(c1nc(C(=O)Nc2cnoc2)c(O)c(=O)n1C)C(c1ccccc1)c1ccccc1C(F)(F)F (single isomer, unassigned) [Example 84]
21 | < 1000 | < 100 | – | < 1000 | CN(c1nc(C(=O)Nc2cnoc2)c(O)c(=O)n1C)C(c1ccccc1)c1ccccc1C#N (single isomer, unassigned) [Example 85]
22 | < 1000 | < 100 | < 1000 | – | CN(c1nc(C(=O)Nc2cnoc2)c(O)c(=O)n1C)C(c1ccccc1)c1ccccc1C#N (single isomer, unassigned) [Example 86]
23 | < 1000 | < 100 | – | < 1000 | CN(c1nc(C(=O)Nc2cnoc2)c(O)c(=O)n1C)C(c1ccccc1)c1cc(F)ccc1Cl (single isomer, unassigned) [Example 87]
